Here are results for 15 molecules from US7648999B2, “Activator for peroxisome proliferator-activated receptor δ” (Nippon Chemiphar Co., Ltd., priority 2007, dated 2010).

What all share (type): cell-based
In one test the target is T1, PPARγ (GAL4-hPPARγ LBD) (Homo sapiens, UniProt P37231).
T1 construct: Receptor expression plasmid (GAL4-hPPARα, LBD GAL4-hPPARγ LBD, GAL4-hPPARδ LBD); expressed in transfected cells; host or cells: CV-1 cells
T1 sequence (P37231 238-503 limits assumed): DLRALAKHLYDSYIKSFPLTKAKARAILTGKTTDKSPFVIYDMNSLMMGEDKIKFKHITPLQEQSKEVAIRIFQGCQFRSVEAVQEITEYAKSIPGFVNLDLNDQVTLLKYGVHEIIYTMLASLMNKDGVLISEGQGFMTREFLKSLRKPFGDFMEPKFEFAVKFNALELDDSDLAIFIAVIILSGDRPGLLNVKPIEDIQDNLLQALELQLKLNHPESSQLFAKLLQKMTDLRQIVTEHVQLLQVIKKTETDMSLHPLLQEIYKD
As to the kind of experiment: PPARγ transactivation activity (GAL4 chimera luciferase reporter in CV-1 cells).

The next test addresses T2, PPARα (GAL4-hPPARα LBD) (Homo sapiens, UniProt Q07869).
T2 construct: Receptor expression plasmid (GAL4-hPPARα, LBD GAL4-hPPARγ LBD, GAL4-hPPARδ LBD); expressed in transfected cells; host or cells: CV-1 cells
T2 sequence (Q07869 239-466 limits assumed): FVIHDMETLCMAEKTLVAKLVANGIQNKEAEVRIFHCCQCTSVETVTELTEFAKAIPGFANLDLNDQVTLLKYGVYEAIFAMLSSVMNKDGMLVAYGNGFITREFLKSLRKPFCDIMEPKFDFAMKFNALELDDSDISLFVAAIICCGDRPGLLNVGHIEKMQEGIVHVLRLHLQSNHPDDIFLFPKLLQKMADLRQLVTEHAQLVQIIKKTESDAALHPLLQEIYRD
As to the kind of experiment: PPARα transactivation activity (GAL4 chimera luciferase reporter in CV-1 cells). (Reporter assays use an easily measured gene product as a stand-in for the process of interest.)

In the next test the target is T3, PPARδ (GAL4-hPPARδ LBD) (Homo sapiens, UniProt Q03181).
T3 construct: A chimeric receptor expression plasmid (GAL4-hPPARδ LBD), a reporter plasmid (UASx4-TK-LUC); expressed in transfected cells; host or cells: CV-1 cells
T3 sequence (Q03181 211-439 limits assumed): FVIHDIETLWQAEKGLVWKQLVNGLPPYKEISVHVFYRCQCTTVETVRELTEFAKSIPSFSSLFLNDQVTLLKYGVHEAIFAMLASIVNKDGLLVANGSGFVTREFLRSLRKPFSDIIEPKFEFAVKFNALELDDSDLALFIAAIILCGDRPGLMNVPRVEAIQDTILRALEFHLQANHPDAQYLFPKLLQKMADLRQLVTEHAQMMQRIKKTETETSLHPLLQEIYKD
As to the kind of experiment: PPARδ transactivation activity (GAL4 chimera luciferase reporter in CV-1 cells). The protocol: A chimeric receptor expression plasmid (GAL4-hPPARδ LBD), a reporter plasmid (UASx4-TK-LUC) and β-galactosidase (β-GAL) are transfected into CV-1 cells by utilizing a lipofection reagent DMRIE-C (Life Technologies).
(1) Measurement of PPARα, γ, δ Transactivation Activity
CV-1 cells were obtained from Tohoku University Aging Medical Laboratory, Medical Cell Collection Center. All test compounds were dissolved in dimethylsulfoxide (DMSO). Final concentration of DMSO was 0.1%.
CV-1 cells were seeded in 24 well culture plates at 2×10^5 cells per well, and cultured for 24 hours OPTI-MEM I Reduced Serum Medium (Life Technologies, 500 μL/well) containing 4%-fetal bovine serum (FBS). After washing with OPTI-MEM, transfection mixture (250 μL/well) containing 0.03 μg of GAL4-hPPARδ LBD, 0.25 μg of UASx-4-TK-LUC, 0.35 μg of βGAL, and 2 μL of lipofection reagent, DMRIE-C (Life Technologies) were added. The cells were incubated for 5 hours at 37° C.
The cells were washed and incubated for 40 hours in the presence of the test compound (final concentration was 10^−7M or 10^−6M)
The culture medium was removed and the cells were washed with PBS twice. A solubilizing buffer (100 μL/well) containing 25 mM Tris-PO4 (pH 7.8), 15% v/v glycerol, 2% CHAPS, 1% Lecithin, 1% BSA, 4 mM EGTA (pH 8.0), 8 mM MgCl2, 1 mM DTT was added. After the incubation for 10 minutes at room temperature, a portion (20 μL) of the solution was transferred into a 96-well plate. Subsequently, 100 μL of luciferase substrate solution (Piccagene: available from Nippon Gene Co., Ltd.) was added, and a luminous intensity per one second (luciferase activity) was measured using a microluminoreader (Type MLR-100, Corona Electrics Co., Ltd.). Each luciferase activity was corrected by the transfection efficiency which was calculated from β-galactosidase activity. The assay method of β-galactosidase activity was as follows: A portion (50 μL) of the solubilized sample was transferred into another 96-well plate; 100 μL of ONPG (2-nitrophenyl-β-galactopyranoside) solution was added and incubated for 5 minutes at room temperature. 50 μL of a reaction stopping solution (1M sodium carbonate solution) was added. Then the absorbance at 414 nm was measured.

Where [1] appears, read: compound at 10^−7 M (value without parentheses).
Setting [2] is: compound at 10^−6 M (value in parentheses).

Read-outs that look alike come from different tables or passages of the source.

Turning to `C=CCc1cc(C(=O)CCc2sc(-c3ccc(C(F)(F)F)cc3)nc2C(C)C)ccc1OCC(=O)O` [Example 19, 2-Allyl-4-[3-[4-isopropyl-2-(4-trifluoromethyl)phenyl-5-thiazolyl]propionyl]phenoxyacetic acid], the “Relative activity for PPAR transactivation, γ” value (shortened to “Relative activity … γ”) on PPARγ (GAL4-hPPARγ LBD) (setting [1]) is reported as 2 % of control. Besides, at PPARα (GAL4-hPPARα LBD) (setting [1]), the “Relative activity for PPAR transactivation, α” value (shortened to “Relative activity … α”) is listed as 0 % of control. Further, the “Relative activity for PPAR transactivation, δ” value (shortened to “Relative activity … δ”) at PPARδ (GAL4-hPPARδ LBD) (setting [1]) was 86 % of control.
In the case of `Cc1cc(C(=O)CCc2nc(-c3ccc(Cl)cc3O)oc2C(C)C)ccc1OCC(=O)O` [Example 6, [4-[3-[2-(2-Hydroxy-4-chlorophenyl)-5-isopropyl-4-oxazolyl]propionyl]-2-methylphenoxy]acetic acid], the “Relative activity … γ” value at PPARγ (GAL4-hPPARγ LBD) (compound at 10^−7 M, CV-1 cells, 40 hours, positive control 10^−5 M Rosiglitazone = 100%) is given as 6 % of control. In addition, on PPARα (GAL4-hPPARα LBD) (compound at 10^−7 M, CV-1 cells, 40 hours, positive control 10^−4 M WY-14643 = 100%), the “Relative activity … α” value is on record as 0 % of control. For the same molecule, on PPARδ (GAL4-hPPARδ LBD) (compound at 10^−7 M, CV-1 cells, 40 hours, positive control 10^−4 M L-165041 = 100%), the “Relative activity … δ” value is on record as 73 % of control.
With `CCCCCCc1nc(-c2ccc(C(F)(F)F)cc2)sc1CCC(=O)c1ccc(OCC(=O)O)c(C)c1` [Example 11, [4-[3-[4-Hexyl-2-(4-trifluoromethyl)phenyl-5-thiazolyl]propionyl]-2-methylphenoxy]acetic acid], at PPARγ (GAL4-hPPARγ LBD) (setting [1]), the “Relative activity … γ” value is 1 % of control. Further, the “Relative activity … α” value on PPARα (GAL4-hPPARα LBD) (setting [1]) is 0 % of control. Also, the “Relative activity … δ” value on PPARδ (GAL4-hPPARδ LBD) (setting [1]) was 56 % of control.
Turning to `Cc1cc(C(=O)CCc2nc(-c3ccc(C(F)(F)F)cc3)sc2C(C)C)ccc1OC(C)(C)C(=O)O` [Example 38, 2-[4-[3-[5-Isopropyl-2-(4-trifluoromethyl)phenyl-4-thiazolyl]propionyl]-2-methylphenoxy]-2-methylpropionic acid], the “Relative activity … γ” value at PPARγ (GAL4-hPPARγ LBD) (setting [2]) was “(9) % of control”. Further, the “Relative activity … α” value on PPARα (GAL4-hPPARα LBD) (setting [2]) is “(3) % of control”. Moreover, the “Relative activity … δ” value at PPARδ (GAL4-hPPARδ LBD) (setting [2]) is on record as “(69) % of control”.
As for `CCCCCCc1nc(-c2ccc(C(F)(F)F)cc2)sc1CCC(=O)c1ccc(OC(C)(C)C(=O)O)c(C)c1` [Example 12, 2-[4-[3-[4-Hexyl-2-(4-trifluoromethyl)phenyl-5-thiazolyl]propionyl]-2-methylphenoxy]-2-methylpropionic acid], the “Relative activity … γ” value at PPARγ (GAL4-hPPARγ LBD) (setting [1]) is on record as 31 % of control. The “Relative activity … α” value at PPARα (GAL4-hPPARα LBD) (setting [1]) was 75 % of control. Also, the “Relative activity … δ” value on PPARδ (GAL4-hPPARδ LBD) (setting [1]) is listed as 45 % of control.
As for `Cc1ccc(C(=O)CCc2sc(-c3ccc(C(F)(F)F)cc3)nc2C(C)C)cc1OC(C)(C)C(=O)O` [Example 42, 2-[5-[3-[4-Isopropyl-2-(4-trifluoromethyl)phenyl-5-thiazolyl]propionyl]-2-methylphenoxy]-2-methylpropionic acid], the “Relative activity … γ” value on PPARγ (GAL4-hPPARγ LBD) (setting [2]) was “(55) % of control”. Further, the “Relative activity … α” value at PPARα (GAL4-hPPARα LBD) (setting [2]) was “(68) % of control”.
On to `Cc1cc(C(=O)C=Cc2sc(-c3ccc(C(F)(F)F)cc3)nc2C(C)C)ccc1OC(C)(C)C(=O)O` [Example 25, 2-[4-[3-[4-Isopropyl-2-(4-trifluoromethyl)phenyl-5-thiazolyl]propenoyl]-2-methylphenoxy]-2-methylpropionic acid], for which, at PPARδ (GAL4-hPPARδ LBD) (setting [1]), the “Relative activity … δ” value is on record as 61 % of control.
As for `Cc1cc(C(=O)C=Cc2sc(-c3ccc(C(F)(F)F)cc3)nc2C(C)C)ccc1OCC(=O)O` [Example 24, [4-[3-[4-Isopropyl-2-(4-trifluoromethyl)phenyl-5-thiazolyl]propenoyl]-2-methylphenoxy]acetic acid], the “Relative activity … γ” value at PPARγ (GAL4-hPPARγ LBD) (setting [1]) is on record as 0 % of control. Further, on PPARα (GAL4-hPPARα LBD) (setting [1]), the “Relative activity … α” value is listed as 0 % of control. The “Relative activity … δ” value on PPARδ (GAL4-hPPARδ LBD) (setting [1]) is reported as 75 % of control.
As to `Cc1cc(C=CCc2sc(-c3ccc(C(F)(F)F)cc3)nc2C(C)C)ccc1OC(C)(C)C(=O)O` [Example 13, 2-[4-[3-[4-Isopropyl-2-(4-trifluoromethyl)phenyl-5-thiazolyl]-1-propenyl]-2-methylphenoxy]-2-methylpropionic acid], the “Relative activity … γ” value on PPARγ (GAL4-hPPARγ LBD) (setting [1]) is recorded as 17 % of control. The “Relative activity … α” value on PPARα (GAL4-hPPARα LBD) (setting [1]) is listed as 63 % of control. Also, the “Relative activity … δ” value at PPARδ (GAL4-hPPARδ LBD) (setting [1]) was 62 % of control.
On the same counts, the results for `CCc1nc(-c2ccc(C(F)(F)F)cc2)sc1CCC(=O)c1ccc(OCC(=O)O)c(C)c1` [Example 47, [4-[3-[4-Ethyl-2-(4-trifluoromethyl)phenyl-5-thiazolyl]propionyl]-2-methylphenoxy]acetic acid] are 0 % of control, 0 % of control and 57 % of control.
“[4-[3-[4-Isopropyl-2-(4-methoxyphenyl)-5-thiazolyl]propionyl]-2-methylphenoxy]propionic acid [Example 26]”: the “Relative activity … δ” value at PPARδ (GAL4-hPPARδ LBD) (setting [1]) was 18 % of control.
For `CCCc1cc(C(=O)CCc2sc(-c3ccc(C(F)(F)F)cc3)nc2C(C)C)ccc1OCC(=O)O` [Example 18, [4-[3-[4-Isopropyl-2-(4-trifluoromethyl)phenyl-5-thiazolyl]propionyl]-2-propylphenoxy]acetic acid], the “Relative activity … γ” value at PPARγ (GAL4-hPPARγ LBD) (setting [1]) is listed as 1 % of control. In addition, the “Relative activity … α” value at PPARα (GAL4-hPPARα LBD) (setting [1]) is recorded as 0 % of control. The “Relative activity … δ” value on PPARδ (GAL4-hPPARδ LBD) (setting [1]) is 70 % of control.
For `CCCCCCc1nc(-c2ccc(C(F)(F)F)cc2)sc1CCC(=O)c1ccc(C)c(OC(C)(C)C(=O)O)c1` [Example 46, 2-[5-[3-[4-Hexyl-2-(4-trifluoromethyl)phenyl-5-thiazolyl]propionyl]-2-methylphenoxy]-2-methylpropionic acid], the “Relative activity … γ” value on PPARγ (GAL4-hPPARγ LBD) (setting [2]) is recorded as “(69) % of control”. In addition, at PPARα (GAL4-hPPARα LBD) (setting [2]), the “Relative activity … α” value is recorded as “(78) % of control”. Moreover, the “Relative activity … δ” value on PPARδ (GAL4-hPPARδ LBD) (setting [2]) is “(46) % of control”.
`Cc1cc(C(=O)CCc2nc(-c3ccc(C(F)(F)F)cc3)sc2C(C)C)ccc1OCC(=O)O` [Example 37, [4-[3-[5-Isopropyl-2-(4-trifluoromethyl)phenyl-4-thiazolyl]propionyl]-2-methylphenoxy]acetic acid]: the “Relative activity … δ” value on PPARδ (GAL4-hPPARδ LBD) is “(71) % of control”.
With `Cc1ccc(C(=O)CCc2sc(-c3ccc(C(F)(F)F)cc3)nc2C(C)C)cc1OCC(=O)O` [Example 41, [5-[3-[4-Isopropyl-2-(4-trifluoromethyl)phenyl-5-thiazolyl]propionyl]-2-methylphenoxy]acetic acid], at PPARγ (GAL4-hPPARγ LBD) (setting [2]), the “Relative activity … γ” value was “(60) % of control”. In addition, on PPARα (GAL4-hPPARα LBD) (setting [2]), the “Relative activity … α” value was “(5) % of control”.
